Reference: ChEMBL document CHEMBL1132650, “4,5-Dihydro-1,2,4-triazolo[1,5-a]quinoxalin-4-ones: excitatory amino acid antagonists with combined glycine/NMDA and AMPA receptor affinity” (J Med Chem, 1999)

Tests used:
[1] = target: T1, Glutamate receptor ionotropic, AMPA (Rattus norvegicus, UniProt P19490+P19491+P19492+P19493); test: Binding affinity towards ionotropic glutamate receptor AMPA in rat cortical membranes using [3H]AMPA radioligand; format: cell membranes
[2] = target: T2, Glutamate receptor ionotropic, NMDA 1 (Rattus norvegicus, UniProt P35439); test: The compound was tested for its binding affinity towards Glycine/NMDA receptor in rat cortical membranes using [3H]glycine as radioligand; format: cell membranes
[3] = target: T2, Glutamate receptor ionotropic, NMDA 1; test: Functional antagonism at the NMDA receptor-ion channel complex was demonstarted by the ability to inhibit the binding of the channel-blocking agent [3H](+)-MK-801
[4] = target: T2, Glutamate receptor ionotropic, NMDA 1; test: Binding affinity towards N-methyl-D-aspartate glutamate receptor 1 in rat cortical membranes using [3H]glycine as radioligand; format: cell membranes
[5] = target: T2, Glutamate receptor ionotropic, NMDA 1; test: Functional antagonism at the N-methyl-D-aspartate glutamate receptor 1 was demonstarted by the ability to inhibit the binding of the channel-blocking agent [3H](+)-MK-801
[6] = target: T1, Glutamate receptor ionotropic, AMPA; test: The compound was tested for its binding affinity towards AMPA receptor in rat cortical membranes using [3H]AMPA radioligand; format: cell membranes

Structure (SMILES) | Ki [1] [µM] | Ki [2] [µM] | EC50 [3] [µM] | Ki [4] [µM] | EC50 [5] [µM] | Ki [6] [µM]
O=C(O)c1nc2c(=O)[nH]c3cc(Cl)c(Cl)cc3n2n1 | 1.3 | 0.074 | 0.3 |  |  | 
OCc1nc2c(O)nc3cc(Cl)ccc3n2n1 | 4.4 |  |  | 7.5 |  | 
O=C(O)Cc1nc2c(O)nc3cc(Cl)ccc3n2n1 | 3.7 |  |  | 1.1 |  | 
CCOC(=O)c1nc2c(=O)[nH]c3cc(Cl)cc(Cl)c3n2n1 | 4.9 |  |  | 4.8 |  | 
O=C(O)c1nc2c(O)nc3cc(Cl)c([N+](=O)[O-])cc3n2n1 | 1.2 |  |  | 2.2 |  | 
O=C(O)c1nc2c(=O)[nH]c3ccccc3n2n1 | 13.6 |  |  | 1.1 | 4.9 | 
CCOC(=O)c1nc2c(=O)[nH]c3cc(N)ccc3n2n1 | > 100 |  |  | > 100 | > 100 | 
O=C(O)c1nc2c(=O)[nH]c3cc(Cl)cc(Cl)c3n2n1 | 1.53 |  |  | 0.14 | 1.35 | 
O=C(O)c1nc2c(O)nc3ccc([N+](=O)[O-])cc3n2n1 | 10.7 |  |  | 79.4 | > 100 | 
O=C(O)CNC(=O)c1nc2c(O)nc3cc(Cl)ccc3n2n1 | 3.2 |  |  | 8.8 |  | 
CCn1c(=O)c2nc(C(=O)O)nn2c2ccc(Cl)cc21 | > 100 |  |  | 88 | > 100 | 
CCOC(=O)c1nc2c(O)nc3cc(Cl)c(Cl)cc3n2n1 | 33.9 |  |  | 0.71 | 1.5 | 
O=C(O)c1cc(O)c2c(Cl)cc(Cl)cc2n1 |  |  |  |  | 0.33 | 
O=C(O)c1nc2c(=O)[nH]c3ccc(Cl)cc3n2n1 | 18.4 |  |  | 3.5 | 32.5 | 
O=C(NO)c1nc2c(O)nc3cc(Cl)ccc3n2n1 |  | 1.1 |  |  |  | 3
CCOC(=O)c1nc2c(=O)[nH]c3cc(C(F)(F)F)ccc3n2n1 | 3.6 |  |  | 1.8 |  | 

Structure (SMILES) | Ki [1] [µM] | Ki [2] [µM] | EC50 [3] [µM] | Ki [4] [µM] | EC50 [5] [µM] | Ki [6] [µM]
CCOC(=O)c1nc2c(O)nc3cc(Br)ccc3n2n1 | 3.3 |  |  | 2.6 |  | 
O=C(Nc1nn[nH]n1)c1nc2c(O)nc3cc(Cl)ccc3n2n1 | 2.4 |  |  | 5.1 |  | 
O=C(O)c1nc2c(=O)[nH]c3cc([N+](=O)[O-])ccc3n2n1 | 0.6 |  |  | 0.71 | 7.8 | 
O=C(O)c1nc2c(=O)[nH]c3cc(Br)ccc3n2n1 | 4.4 |  |  | 0.39 | 3.7 | 
NC(=O)c1nc2c(=O)[nH]c3cc(Cl)ccc3n2n1 | 11.7 |  |  | 7.2 |  | 
CCOC(=O)Cc1nc2c(=O)[nH]c3cc(Cl)ccc3n2n1 | 2.1 |  |  | 6.5 |  | 
O=C(O)c1nc2c(O)nc3c([N+](=O)[O-])cc(Cl)cc3n2n1 | 4 |  |  | 4.5 | > 100 | 
NNC(=O)c1nc2c(=O)[nH]c3cc(Cl)ccc3n2n1 |  | 9.6 |  |  |  | 5
O=C(O)c1nc2c(O)nc3cc(Cl)ccc3n2n1 | 0.78 |  |  | 0.17 | 2.9 | 
CCOC(=O)c1nc2c(=O)[nH]c3ccc(Cl)cc3n2n1 | 72.1 |  |  | 88.2 |  | 
COC(=O)CNC(=O)c1nc2c(=O)[nH]c3cc(Cl)ccc3n2n1 | 4.1 |  |  | 5.4 |  | 
O=C(NCCO)c1nc2c(O)nc3cc(Cl)ccc3n2n1 | 7.7 |  |  | 27.7 |  | 
CCOC(=O)c1nc2c(O)nc3cc(Cl)ccc3n2n1 | 2.6 |  |  | 3 | 22.1 | 
N#CCc1nc2c(O)nc3cc(Cl)ccc3n2n1 | 2 |  |  | 9.7 |  | 
O=C(O)c1nc2c(O)nc3cc(C(F)(F)F)ccc3n2n1 | 0.9 |  |  | 0.57 | 3.18 | 
CCOC(=O)c1nc2c(O)nc3ccccc3n2n1 | 28.5 |  |  | 16.7 | 69 | 
